Literature values in US20080107723A1, “Methods of Treating Pulmonary Distress” (priority 2006, published 2008).

Tests used:
[1] = system: colony forming units (CFU); conditions: administered by inhalation; CF patients
[2] = administered by inhalation; CF patients

| Molecule | reduction in colony forming units (CFU) [1] | improvement in FEV1 [2] |
| --- | --- | --- |
| NC[C@H]1O[C@H](O[C@H]2[C@H](O)[C@@H](O[C@H]3O[C@H](CO)[C@@H](O)[C@H](N)[C@H]3O)[C@H](N)C[C@@H]2N)[C@H](N)C[C@@H]1O [Tobramycin] | about 2 log units | approximately 10% |
| Pulmozyme: recombinant human Dnase administered by inhalation (protein, UniProt P24855 23-282, looked up) Deoxyribonuclease-1: LKIAAFNIQTFGETKMSNATLVSYIVQILSRYDIALVQEVRDSHLTAVGKLLDNLNQDAPDTYHYVVSEPLGRNSYKERYLFVYRPDQVSAVDSYYYDDGCEPCGNDTFNREPAIVRFFSRFTEVREFAIVPLHAAPGDAVAEIDALYDVYLDVQEKWGLEDVMLMGDFNAGCSYVRPSQWSSIRLWTSPTFQWLIPDSADTTATPTHCAYDRIVVAGMLLRGAVVPDSALPFNFQAAYGLSDQLAQAISDHYPVEVMLK |  | approximately 10% |
